The test system of this assay is PBMCs and HCV peptide-specific T cell lines from HCV-infected subjects. It counts as cell-based, human.

In the case of HSKRKCDEL, the “T cell response to peptide, in words” value is recorded as “no detectable response”.

Consider phytohemagglutinin, for which the “response to positive control” value is listed as “uniformly positive”.
